US20260165973A1 (MERCK SHARP & DOHME LLC, priority 2023, published 2026)

What was measured:
[1] = open container at 5° C./ambient RH, 30° C./65% RH, 40° C./75% RH, and 60° C./ambient RH; cited from earlier work
[2] = Solubility / solubilization assessment of doravirine and islatravir; assay type: physicochemical; conditions: islatravir: in water and dissolution media
Excerpt: Details are provided in Example 5.
The manufacturing process includes standard unit operations and equipment for tablet production.

Row | Solubility [2] | Compound | Time to crystallization on storage [1] [weeks]
1 | – | Cn1c(Cn2ccc(C(F)(F)F)c(Oc3cc(Cl)cc(C#N)c3)c2=O)n[nH]c1=O [Neat amorphous doravirine, 3-chloro-5-({1-[(4-methyl-5-oxo-4,5-dihydro-1H-1,2,4-triazol-3-yl)methyl]-2-oxo-4-(trifluoromethyl)-1,2-dihydropyridin-3-yl}oxy)benzonitrile] | ≤ 2
2 | high solubility | C#C[C@@]1(CO)O[C@H](n2cnc3c(N)nc(F)nc32)C[C@H]1O [islatravir, (2S,3R,5S)-5-(6-amino-2-fluoro-9H-purin-9-yl)-2-ethynyl-2-(hydroxymethyl)tetrahydrofuran-3-ol] | –
